These results are taken from patent US8906904B2, “Alkoxy pyrazoles as soluble guanylate cyclase activators” (Boehringer Ingelheim International GmbH, priority 2012, dated 2014).

For the first data set, the target named is T1, human soluble guanylate cyclase alpha 1 and beta 1 subunits (sGC) (Homo sapiens, UniProt Q02108+Q02153).
T1 construct: expressed in transfected cells; host or cells: Chinese hamster ovary (CHO) cells, stably transfected
T1 sequence (Q02108 1-690): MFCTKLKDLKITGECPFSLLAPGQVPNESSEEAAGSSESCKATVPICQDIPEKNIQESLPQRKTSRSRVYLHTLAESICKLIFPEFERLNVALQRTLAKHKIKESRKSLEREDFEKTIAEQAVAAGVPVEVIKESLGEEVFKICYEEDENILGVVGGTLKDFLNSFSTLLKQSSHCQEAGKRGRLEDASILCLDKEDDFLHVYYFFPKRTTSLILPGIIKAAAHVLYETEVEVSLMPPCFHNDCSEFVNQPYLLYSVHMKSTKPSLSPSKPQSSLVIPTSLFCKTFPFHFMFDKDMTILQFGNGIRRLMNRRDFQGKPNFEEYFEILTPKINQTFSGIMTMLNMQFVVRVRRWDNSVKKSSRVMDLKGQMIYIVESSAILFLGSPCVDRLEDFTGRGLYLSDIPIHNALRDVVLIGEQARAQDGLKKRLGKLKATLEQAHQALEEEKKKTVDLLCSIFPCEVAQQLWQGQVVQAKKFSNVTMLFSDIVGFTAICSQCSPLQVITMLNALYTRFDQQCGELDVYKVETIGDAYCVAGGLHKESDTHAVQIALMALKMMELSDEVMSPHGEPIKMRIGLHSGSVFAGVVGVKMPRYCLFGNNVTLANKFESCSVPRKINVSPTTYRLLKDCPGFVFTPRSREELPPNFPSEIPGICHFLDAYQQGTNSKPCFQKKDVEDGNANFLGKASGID
T1 sequence (Q02153 1-619): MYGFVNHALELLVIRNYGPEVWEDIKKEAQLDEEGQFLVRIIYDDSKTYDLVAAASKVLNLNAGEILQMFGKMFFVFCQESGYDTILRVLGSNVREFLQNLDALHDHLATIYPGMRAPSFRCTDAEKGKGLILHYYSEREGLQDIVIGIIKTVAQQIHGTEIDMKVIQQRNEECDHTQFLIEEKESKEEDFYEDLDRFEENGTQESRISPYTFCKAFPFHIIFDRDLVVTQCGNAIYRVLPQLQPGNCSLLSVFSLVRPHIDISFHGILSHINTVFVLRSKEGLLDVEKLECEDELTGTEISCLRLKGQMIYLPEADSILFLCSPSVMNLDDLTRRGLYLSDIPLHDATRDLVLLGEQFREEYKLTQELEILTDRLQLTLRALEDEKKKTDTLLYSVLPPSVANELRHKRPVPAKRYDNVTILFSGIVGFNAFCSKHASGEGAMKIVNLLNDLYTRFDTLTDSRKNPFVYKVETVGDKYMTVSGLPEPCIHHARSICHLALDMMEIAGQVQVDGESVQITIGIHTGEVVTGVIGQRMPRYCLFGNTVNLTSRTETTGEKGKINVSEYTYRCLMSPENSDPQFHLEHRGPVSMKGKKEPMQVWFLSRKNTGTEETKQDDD
Kind of data set: sGC cellular activator assay (cGMP, HTRF). Type of data set: cell-based. Particulars: CHO cells stably expressing human sGC alpha 1/beta 1, preincubated with 40 microM ODQ; cGMP readout; assay run with and without 50% human serum, Table 2 does not say which. The method, then:
The sGC cellular activator assay is performed in the presence and absence of 50% human serum (HS) using Chinese hamster ovary cells that have been stably transfected to express the human soluble guanylate cyclase alpha 1 and beta 1 subunits (sGC). Cells are preincubated with 40 microM 1H-[1,2,4]oxadiazolo[4,3-a]quinoxalin-1-one (ODQ), an sGC inhibitor, for one h in buffer containing 0.1% bovine serum albumin and 3-isobutyl-1-methylxanthine (IBMX). Concentration response curves are prepared for test compounds in DMSO. An intermediate dilution of the compounds is performed in either buffer containing IBMX or type AB HS containing IBMX. Diluted compounds are added to cells and they are incubated at room temperature for thirty min. cGMP is measured using a CisBio homogeneous time resolved fluorescence kit and the EC50 is calculated for each compound.
Representative compounds of the present invention were tested for activity the above assay. Preferred compounds have an EC50 of <1,000 nM in the above assay and more preferred compounds have an EC50<200 nM.
A general note: In TR-FRET formats the signal depends on donor and acceptor labels being close together.
For `CCCOc1c(C(=O)O)cnn1-c1cccc(-c2cccc(C)c2OCc2ccc3c(c2C)CCN(C2CCOCC2)C3)n1` [Compound 133], the EC50 (commonly the midpoint of the concentration-response curve) amounted to 27 nM.
On the same count and under the same terms, the result for `Cc1cccc(-c2cccc(-n3ncc(C(=O)O)c3OCC(C)C)n2)c1OCc1ccc2c(c1C)CCN(C1CCOCC1)C2` [Compound 134] reads 46 nM; that for `CC[C@H](C)Oc1c(C(=O)O)cnn1-c1cccc(-c2cccc(C)c2OCc2ccc3c(c2C)CCN(C2CCCOC2)C3)n1` (some centres unmarked) [Compound 135], 54 nM; that for `CC[C@H](C)Oc1c(C(=O)O)cnn1-c1cccc(-c2cccc(C)c2OCc2ccc3c(c2C)CCN(C2CCOCC2)C3)n1` [Compound 136], 81 nM.
`CC[C@H](C)Oc1c(C(=O)O)cnn1-c1cccc(-c2cccc(C)c2OCc2ccc3c(c2C)CCN(C2CCOC2)C3)n1` (some centres unmarked) [Compound 137]: the EC50 came to 89 nM.
On the same count and under the same terms, the result for `COc1c(C(=O)O)cnn1-c1cccc(-c2cccc(C)c2OCc2ccc3c(c2C)CCN(C[C@@H]2COCCO2)C3)n1` [Compound 139] reads 8.4 nM.
In turn, `COc1c(C(=O)O)cnn1-c1cccc(-c2cccc(C)c2OCc2ccc3c(c2C)CCN([C@@H]2CCCOC2)C3)n1` [Compound 140] came in with a concentration for a half-maximal effect (EC50) of 15 nM.
Still for that read-out and setting: the result for `COc1c(C(=O)O)cnn1-c1cccc(-c2cccc(C)c2OCc2ccc3c(c2C)CCN([C@H]2CCCOC2)C3)n1` [Compound 141] reads 17 nM; that for `COc1c(C(=O)O)cnn1-c1cccc(-c2cccc(C)c2OCc2ccc3c(c2C)CCN(C[C@H]2COCCO2)C3)n1` [Compound 142], 62 nM.
Same read-out and setting: as for `COc1c(C(=O)O)cnn1-c1cccc(-c2cccc(C)c2OCc2cc3c(cc2C)CN(C2CCOCC2)C3)n1` [Compound 143], the figure is 160 nM; as for `CC(C)Oc1c(C(=O)O)cnn1-c1cccc(-c2ccccc2OCc2ccc3c(c2)CCN(C2CCOCC2)C3)n1` [Compound 144], 460 nM; as for `COc1c(C(=O)O)cnn1-c1cccc(-c2cccc(C)c2OCc2cc(C)c3c(c2C)CN(C2CCOCC2)C3)n1` [Compound 145], 13 nM.
Same read-out and setting: the result for `CCOc1c(C(=O)O)cnn1-c1cccc(-c2cccc(C)c2OCc2ccc3c(c2C)CCN(CC2CCCOC2)C3)n1` (centres unmarked) [Compound 146] reads 23 nM.

Tested on in a further data set: not listed separately
Kind of data set: human liver microsome (HLM) metabolic stability assay. Type of data set: in vitro ADME. Particulars: human liver microsomes; % hepatic blood flow calculated from t1/2. The method, then:
The 5 time point, high-throughput human liver microsome (HLM) metabolic stability assay is designed to determine in vitro compound metabolism. Compounds are incubated with HLMs at a concentration of 1 uM, at 37° C., for a total of 60 min. The percent of compound remaining at 5, 15, 30, and 60 min is used to calculate the t½ (min), CLint (mL/min/kg), CLh (mL/min/kg), and % Qh. The assay is based on a 96-well format and can accommodate up to 92 compounds per plate (n=1).
Using the 96-well multi-channel head, the Biomek FX, equipped with a Peltier heating block/shaker, is programmed to accomplish the following steps: • 1. Pipette 175 uL of 1.15 mg/mL microsomes into each of the 96 conical inserts (Analytical Sales and Products, catalog number 96PL05) that fit into the plate of the Peltier heating block/shaker (the incubation plate) • 2. Add 5 uL of compounds from the assay plate to the microsomes and shake the mixture at 600 rpm at 42.1° C. for 10 min (a setting of 42.1° C. on the Peltier is required for the samples to incubate at 37° C.) • 3. After 10 min, prompt the user to add the NADPH plate to the deck and add 20 uL from the NADPH plate to the incubation plate to start the reaction • 4. Add 215 uL of 100%, cold acetonitrile containing an internal standard(s) to a 0 minute, 5 minute, 15 minute, 30 minute, and 60 minute “quench” plate • 5. At 0 min, 5 min, 15 min, 30 min, and 60 min into the incubation, aspirate 12 uL from the incubation mixture and add it to the quench solution to stop the reaction • 6. Add 185 uL HPLC grade water to each well of the 0, 5, 15, 30 and 60 minute quench plates to dilute compounds to the appropriate concentration for the mass spectrometer
After all time points are collected, the quench plates are sealed with 96-well pierceable plate mats or heat sealing foil and centrifuged at 3000 rpm for 15 min to pellet the microsomes.
The plates are analyzed using LC/MS/MS with electron spray ionization (ESI) and the previously determined MRM transitions. The LC method includes the following parameters:
Using an Excel template in Activitybase, the peak areas corresponding to 5, 15, 30 and 60 min are compared to the peak area at 0 min to calculate the percent of remaining compound using the following equation: Percent compound remaining=(AUC at Time t min/AUC at Time 0 min)×100 where t=0, 5, 15, 30 or 60 min.
Time (min) is plotted against the natural logarithm (Ln) of the percent compound remaining to determine the slope. The slope is used to calculate t½ (min) using the equation, t½=0.693/slope.
Preferred compounds have % Qh values of less than 24.
On to `CCCOc1c(C(=O)O)cnn1-c1cccc(-c2cccc(C)c2OCc2ccc3c(c2C)CCN(C2CCOCC2)C3)n1` [Compound 133], for which the “HLM (% Qh)” value is reported as <24 % Qh.
Still for that read-out and setting: as for `Cc1cccc(-c2cccc(-n3ncc(C(=O)O)c3OCC(C)C)n2)c1OCc1ccc2c(c1C)CCN(C1CCOCC1)C2` [Compound 134], the figure is 32 % Qh.
Still for that read-out and setting: the result for `CC[C@H](C)Oc1c(C(=O)O)cnn1-c1cccc(-c2cccc(C)c2OCc2ccc3c(c2C)CCN(C2CCCOC2)C3)n1` (some centres unmarked) [Compound 135] reads 29 % Qh.
`CC[C@H](C)Oc1c(C(=O)O)cnn1-c1cccc(-c2cccc(C)c2OCc2ccc3c(c2C)CCN(C2CCOCC2)C3)n1` [Compound 136]: the “HLM (% Qh)” value is given as <24 % Qh.
On the same count and under the same terms, as for `CC[C@H](C)Oc1c(C(=O)O)cnn1-c1cccc(-c2cccc(C)c2OCc2ccc3c(c2C)CCN(C2CCOC2)C3)n1` (some centres unmarked) [Compound 137], the figure is <24 % Qh; as for `COc1c(C(=O)O)cnn1-c1cccc(-c2cccc(C)c2OCc2ccc3c(c2C)CCN(C[C@@H]2COCCO2)C3)n1` [Compound 139], <24 % Qh.
The same measure, in the same setting: as for `COc1c(C(=O)O)cnn1-c1cccc(-c2cccc(C)c2OCc2ccc3c(c2C)CCN([C@@H]2CCCOC2)C3)n1` [Compound 140], the figure is <24 % Qh.
The same measure, in the same setting: as for `COc1c(C(=O)O)cnn1-c1cccc(-c2cccc(C)c2OCc2ccc3c(c2C)CCN([C@H]2CCCOC2)C3)n1` [Compound 141], the figure is <24 % Qh; as for `COc1c(C(=O)O)cnn1-c1cccc(-c2cccc(C)c2OCc2ccc3c(c2C)CCN(C[C@H]2COCCO2)C3)n1` [Compound 142], <24 % Qh; as for `COc1c(C(=O)O)cnn1-c1cccc(-c2cccc(C)c2OCc2cc3c(cc2C)CN(C2CCOCC2)C3)n1` [Compound 143], <24 % Qh.
As to `CC(C)Oc1c(C(=O)O)cnn1-c1cccc(-c2ccccc2OCc2ccc3c(c2)CCN(C2CCOCC2)C3)n1` [Compound 144], the “HLM (% Qh)” value was <24 % Qh.
On to `COc1c(C(=O)O)cnn1-c1cccc(-c2cccc(C)c2OCc2cc(C)c3c(c2C)CN(C2CCOCC2)C3)n1` [Compound 145], for which the “HLM (% Qh)” value is <24 % Qh.
Still for that read-out and setting: the result for `CCOc1c(C(=O)O)cnn1-c1cccc(-c2cccc(C)c2OCc2ccc3c(c2C)CCN(CC2CCCOC2)C3)n1` (centres unmarked) [Compound 146] reads <24 % Qh.
